Results reported in the NIST ThermoML archive (doi:10.1021/je100256w).
Numbers after ± are expanded uncertainties.

Assay: cn = amount concentration of the nth substance listed, in mol/dm3
Details: 101 kPa, Liquid, Dip Cell

O=C([O-])c1ccccc1O.[Na+] [sodium salicylate] + O
electrical conductivity (298 K, c1 = 3.09e-05): 2.48e-05 ± 6.1e-07 S/m | electrical conductivity (298 K, c1 = 6.1e-05): 4.76e-05 ± 1.2e-06 S/m | electrical conductivity (298 K, c1 = 9.04e-05): 6.66e-05 ± 1.7e-06 S/m | electrical conductivity (298 K, c1 = 0.000119): 8.34e-05 ± 2.1e-06 S/m | electrical conductivity (298 K, c1 = 0.000147): 0.000102 ± 2.7e-06 S/m | electrical conductivity (298 K, c1 = 0.0001744): 0.000118 ± 3.2e-06 S/m | electrical conductivity (298 K, c1 = 0.0002064): 0.000135 ± 3.6e-06 S/m | electrical conductivity (298 K, c1 = 0.0002376): 0.000152 ± 4.3e-06 S/m | electrical conductivity (298 K, c1 = 0.0002778): 0.000173 ± 4.8e-06 S/m | electrical conductivity (298 K, c1 = 0.0003166): 0.000192 ± 5.3e-06 S/m | electrical conductivity (298 K, c1 = 0.0003541): 0.000204 ± 5.1e-06 S/m | electrical conductivity (298 K, c1 = 0.0003903): 0.00021 ± 5.8e-06 S/m | electrical conductivity (298 K, c1 = 0.0004339): 0.000226 ± 6.9e-06 S/m | electrical conductivity (298 K, c1 = 0.0004757): 0.000244 ± 7.5e-06 S/m | electrical conductivity (298 K, c1 = 0.0005237): 0.000261 ± 8.1e-06 S/m | electrical conductivity (298 K, c1 = 0.0005695): 0.000281 ± 8.7e-06 S/m | electrical conductivity (298 K, c1 = 0.0006132): 0.000297 ± 9.1e-06 S/m | electrical conductivity (298 K, c1 = 0.000655): 0.000311 ± 9.9e-06 S/m | electrical conductivity (298 K, c1 = 0.0007014): 0.000322 ± 1e-05 S/m | electrical conductivity (298 K, c1 = 0.0007517): 0.000344 ± 1.1e-05 S/m | electrical conductivity (298 K, c1 = 0.0007993): 0.00036 ± 1.1e-05 S/m | electrical conductivity (298 K, c1 = 0.0008444): 0.000373 ± 1.1e-05 S/m | electrical conductivity (298 K, c1 = 0.0008974): 0.000389 ± 1.2e-05 S/m | electrical conductivity (298 K, c1 = 0.0009472): 0.000401 ± 1.3e-05 S/m | electrical conductivity (298 K, c1 = 0.001003): 0.000417 ± 1.3e-05 S/m | electrical conductivity (298 K, c1 = 0.001063): 0.000433 ± 1.4e-05 S/m | electrical conductivity (298 K, c1 = 0.001123): 0.00045 ± 1.4e-05 S/m | electrical conductivity (298 K, c1 = 0.001181): 0.000464 ± 1.5e-05 S/m | electrical conductivity (298 K, c1 = 0.001241): 0.000474 ± 1.6e-05 S/m | electrical conductivity (298 K, c1 = 0.001301): 0.000494 ± 1.7e-05 S/m | electrical conductivity (303 K, c1 = 3.09e-05): 2.4e-05 ± 6.2e-07 S/m | electrical conductivity (303 K, c1 = 6.1e-05): 4.74e-05 ± 1.2e-06 S/m | electrical conductivity (303 K, c1 = 9.04e-05): 6.95e-05 ± 1.9e-06 S/m | electrical conductivity (303 K, c1 = 0.000119): 8.73e-05 ± 2.5e-06 S/m | electrical conductivity (303 K, c1 = 0.000147): 0.000107 ± 3e-06 S/m | electrical conductivity (303 K, c1 = 0.0001744): 0.000125 ± 3.5e-06 S/m | electrical conductivity (303 K, c1 = 0.0002064): 0.000144 ± 4.1e-06 S/m | electrical conductivity (303 K, c1 = 0.0002376): 0.000163 ± 4.5e-06 S/m | electrical conductivity (303 K, c1 = 0.0002778): 0.000185 ± 5.2e-06 S/m | electrical conductivity (303 K, c1 = 0.0003166): 0.000203 ± 5.2e-06 S/m | electrical conductivity (303 K, c1 = 0.0003541): 0.00021 ± 5.5e-06 S/m | electrical conductivity (303 K, c1 = 0.0003903): 0.000227 ± 6.7e-06 S/m | electrical conductivity (303 K, c1 = 0.0004339): 0.000248 ± 7.4e-06 S/m | electrical conductivity (303 K, c1 = 0.0004757): 0.000266 ± 7.9e-06 S/m | electrical conductivity (303 K, c1 = 0.0005237): 0.000288 ± 8.7e-06 S/m | electrical conductivity (303 K, c1 = 0.0005695): 0.000307 ± 9.4e-06 S/m | electrical conductivity (303 K, c1 = 0.0006132): 0.000325 ± 9.8e-06 S/m | electrical conductivity (303 K, c1 = 0.000655): 0.000342 ± 1e-05 S/m | electrical conductivity (303 K, c1 = 0.0007014): 0.00036 ± 1.1e-05 S/m | electrical conductivity (303 K, c1 = 0.0007517): 0.000378 ± 1.1e-05 S/m | electrical conductivity (303 K, c1 = 0.0007993): 0.000395 ± 1.2e-05 S/m | electrical conductivity (303 K, c1 = 0.0008444): 0.000409 ± 1.3e-05 S/m | electrical conductivity (303 K, c1 = 0.0008974): 0.000422 ± 1.4e-05 S/m | electrical conductivity (303 K, c1 = 0.0009472): 0.000448 ± 1.5e-05 S/m | electrical conductivity (303 K, c1 = 0.001003): 0.000459 ± 1.6e-05 S/m | electrical conductivity (303 K, c1 = 0.001063): 0.000483 ± 1.6e-05 S/m | electrical conductivity (303 K, c1 = 0.001123): 0.000492 ± 1.6e-05 S/m | electrical conductivity (303 K, c1 = 0.001181): 0.000515 ± 1.8e-05 S/m | electrical conductivity (303 K, c1 = 0.001241): 0.000535 ± 1.9e-05 S/m | electrical conductivity (303 K, c1 = 0.001301): 0.000552 ± 1.9e-05 S/m | electrical conductivity (308 K, c1 = 3.09e-05): 2.71e-05 ± 1.4e-06 S/m | electrical conductivity (308 K, c1 = 6.1e-05): 5.24e-05 ± 2.4e-06 S/m | electrical conductivity (308 K, c1 = 9.04e-05): 7.56e-05 ± 3.2e-06 S/m | electrical conductivity (308 K, c1 = 0.000119): 9.64e-05 ± 4.2e-06 S/m | electrical conductivity (308 K, c1 = 0.000147): 0.000118 ± 5.1e-06 S/m | electrical conductivity (308 K, c1 = 0.0001744): 0.000136 ± 5.8e-06 S/m | electrical conductivity (308 K, c1 = 0.0002064): 0.000157 ± 6.5e-06 S/m | electrical conductivity (308 K, c1 = 0.0002376): 0.000176 ± 6.2e-06 S/m | electrical conductivity (308 K, c1 = 0.0002778): 0.0002 ± 7.1e-06 S/m | electrical conductivity (308 K, c1 = 0.0003166): 0.000209 ± 7.9e-06 S/m | electrical conductivity (308 K, c1 = 0.0003541): 0.000228 ± 9.4e-06 S/m | electrical conductivity (308 K, c1 = 0.0003903): 0.000248 ± 1e-05 S/m | electrical conductivity (308 K, c1 = 0.0004339): 0.00027 ± 1e-05 S/m | electrical conductivity (308 K, c1 = 0.0004757): 0.00029 ± 1.2e-05 S/m | electrical conductivity (308 K, c1 = 0.0005237): 0.000315 ± 1.3e-05 S/m | electrical conductivity (308 K, c1 = 0.0005695): 0.000338 ± 1.4e-05 S/m | electrical conductivity (308 K, c1 = 0.0006132): 0.000357 ± 1.4e-05 S/m | electrical conductivity (308 K, c1 = 0.000655): 0.000373 ± 1.5e-05 S/m | electrical conductivity (308 K, c1 = 0.0007014): 0.000394 ± 1.6e-05 S/m | electrical conductivity (308 K, c1 = 0.0007517): 0.000412 ± 1.7e-05 S/m | electrical conductivity (308 K, c1 = 0.0007993): 0.000434 ± 1.7e-05 S/m | electrical conductivity (308 K, c1 = 0.0008444): 0.000457 ± 1.8e-05 S/m | electrical conductivity (308 K, c1 = 0.0008974): 0.000482 ± 1.9e-05 S/m | electrical conductivity (308 K, c1 = 0.0009472): 0.000502 ± 1.9e-05 S/m | electrical conductivity (308 K, c1 = 0.001003): 0.000527 ± 2e-05 S/m | electrical conductivity (308 K, c1 = 0.001063): 0.000551 ± 2e-05 S/m | electrical conductivity (308 K, c1 = 0.001123): 0.000561 ± 2.1e-05 S/m | electrical conductivity (308 K, c1 = 0.001181): 0.000594 ± 2.1e-05 S/m | electrical conductivity (308 K, c1 = 0.001241): 0.000613 ± 2.2e-05 S/m | electrical conductivity (308 K, c1 = 0.001301): 0.000631 ± 2.2e-05 S/m | electrical conductivity (313 K, c1 = 3.09e-05): 3.69e-05 ± 2.2e-06 S/m | electrical conductivity (313 K, c1 = 6.1e-05): 6.8e-05 ± 3.4e-06 S/m | electrical conductivity (313 K, c1 = 9.04e-05): 9.61e-05 ± 4.6e-06 S/m | electrical conductivity (313 K, c1 = 0.000119): 0.000122 ± 6e-06 S/m | electrical conductivity (313 K, c1 = 0.000147): 0.000149 ± 7.1e-06 S/m | electrical conductivity (313 K, c1 = 0.0001744): 0.000173 ± 8.2e-06 S/m | electrical conductivity (313 K, c1 = 0.0002064): 0.000197 ± 8.7e-06 S/m | electrical conductivity (313 K, c1 = 0.0002376): 0.000208 ± 8.9e-06 S/m | electrical conductivity (313 K, c1 = 0.0002778): 0.000237 ± 9.3e-06 S/m | electrical conductivity (313 K, c1 = 0.0003166): 0.000264 ± 1.2e-05 S/m | electrical conductivity (313 K, c1 = 0.0003541): 0.000286 ± 1.4e-05 S/m | electrical conductivity (313 K, c1 = 0.0003903): 0.000309 ± 1.4e-05 S/m | electrical conductivity (313 K, c1 = 0.0004339): 0.000327 ± 1.5e-05 S/m | electrical conductivity (313 K, c1 = 0.0004757): 0.000363 ± 1.6e-05 S/m | electrical conductivity (313 K, c1 = 0.0005237): 0.000393 ± 1.8e-05 S/m | electrical conductivity (313 K, c1 = 0.0005695): 0.000419 ± 1.9e-05 S/m | electrical conductivity (313 K, c1 = 0.0006132): 0.000441 ± 2e-05 S/m | electrical conductivity (313 K, c1 = 0.000655): 0.000463 ± 2.1e-05 S/m | electrical conductivity (313 K, c1 = 0.0007014): 0.000486 ± 2.2e-05 S/m | electrical conductivity (313 K, c1 = 0.0007517): 0.000511 ± 2.3e-05 S/m | electrical conductivity (313 K, c1 = 0.0007993): 0.000533 ± 2.3e-05 S/m | electrical conductivity (313 K, c1 = 0.0008444): 0.000547 ± 2.3e-05 S/m | electrical conductivity (313 K, c1 = 0.0008974): 0.000572 ± 2.2e-05 S/m | electrical conductivity (313 K, c1 = 0.0009472): 0.000592 ± 2.3e-05 S/m | electrical conductivity (313 K, c1 = 0.001003): 0.000614 ± 2.3e-05 S/m | electrical conductivity (313 K, c1 = 0.001063): 0.000635 ± 2.3e-05 S/m | electrical conductivity (313 K, c1 = 0.001123): 0.000656 ± 2.5e-05 S/m | electrical conductivity (313 K, c1 = 0.001181): 0.000674 ± 2.3e-05 S/m | electrical conductivity (313 K, c1 = 0.001241): 0.000692 ± 2.3e-05 S/m | electrical conductivity (313 K, c1 = 0.001301): 0.000712 ± 2.4e-05 S/m
